Results reported in ChEMBL document CHEMBL5252560 (Bioorg Med Chem Lett, 2023).

Tests used:
Type in all cases: functional, cell-based
[1] = system: U-937; test: Antiproliferative activity against human U-937 cells assessed as cell growth inhibition
[2] = system: Y79; test: Antiproliferative activity against human Y79 cells assessed as cell growth inhibition
[3] = system: HepG2; test: Antiproliferative activity against human HepG2 cells assessed as cell growth inhibition
[4] = system: A549; test: Antiproliferative activity against human A549 cells assessed as cell growth inhibition

SMILES	IC50 [1] [µM]	IC50 [2] [µM]	IC50 [3] [µM]	IC50 [4] [µM]
COc1cc(C2=NNC(c3ccc4ccccc4c3)C2)cc(OC)c1OC (stereo not drawn)	> 10	> 10	> 10	> 10
COc1cc(-c2cc(-c3cccc4c3OCO4)on2)cc(OC)c1OC	> 10	> 10	> 10	> 10
CCn1c2ccccc2c2cc(C3CC(c4cc(OC)c(OC)c(OC)c4)=NO3)ccc21 (stereo not drawn)	1.56	> 10	4.37	> 10
COc1cc(C(/C=C/c2ccc3occc3c2)=N/O)cc(OC)c1OC	0.873	0.371	0.179	> 10
COc1cc(C2=NOC(c3cc(OC)c(OC)c(OC)c3)C2)cc(OC)c1OC (stereo not drawn)	> 10	> 10	> 10	> 10
COc1cc(C2=NOC(c3ccc4c(c3)OCCO4)C2)cc(OC)c1OC (stereo not drawn)	> 10	> 10	> 10	> 10
COc1cc(C2=NOC(c3ccc4oc5ccccc5c4c3)C2)cc(OC)c1OC (stereo not drawn)	> 10	> 10	> 10	> 10
COc1cc(C2=NNC(c3ccc4sc5ccccc5c4c3)C2)cc(OC)c1OC (stereo not drawn)	> 10	> 10	> 10	> 10
COc1cc(C2=NNC(c3cc4ccccc4o3)C2)cc(OC)c1OC (stereo not drawn)	> 10	> 10	> 10	> 10
COc1cc(C2=NNC(c3cccc4c3OCO4)C2)cc(OC)c1OC (stereo not drawn)	> 10	> 10	> 10	> 10
COc1cc(-c2cc(-c3ccc4c(c3)OCCO4)on2)cc(OC)c1OC	6.29	> 10	8.33	5.9
COc1cc(C(/C=C/c2ccc3ccccc3c2)=N/O)cc(OC)c1OC	> 7.43	> 10	0.432	> 10
COc1cc(C2=NNC(c3ccc4c(c3)OCCO4)C2)cc(OC)c1OC (stereo not drawn)	> 10	> 10	> 10	> 10
COc1cc(C2=NNC(c3ccc4occc4c3)C2)cc(OC)c1OC (stereo not drawn)	> 10	> 10	> 10	> 10
COC(=O)c1ccc2c(C3CC(c4cc(OC)c(OC)c(OC)c4)=NN3)c[nH]c2c1 (stereo not drawn)	7.36	> 10	6.35	> 10
COC(=O)c1ccc2c(C3CC(c4cc(OC)c(OC)c(OC)c4)=NO3)c[nH]c2c1 (stereo not drawn)	> 10	> 10	> 10	> 10
COc1cc(C2=NOC(c3c[nH]c4ccccc34)C2)cc(OC)c1OC (stereo not drawn)	3.38	> 10	5.61	> 10
COc1cc(C(/C=C/c2ccc3sc4ccccc4c3c2)=N/O)cc(OC)c1OC	1.39	> 10	0.743	> 10
COc1cc(C2=NNC(c3cccc4ccccc34)C2)cc(OC)c1OC (stereo not drawn)	> 10	> 10	> 10	> 10
COc1cc(C2=NOC(c3ccc4ccccc4c3)C2)cc(OC)c1OC (stereo not drawn)	> 10	> 10	6.3	> 10
COc1cc(C2=NNC(c3ccc4c(c3)CCO4)C2)cc(OC)c1OC (stereo not drawn)	> 10	> 10	6.93	> 10
COc1cc(C2=NOC(c3ccc4occc4c3)C2)cc(OC)c1OC (stereo not drawn)	> 10	> 10	> 10	> 10
COc1cc(C(/C=C/c2ccc3ncccc3c2)=N/O)cc(OC)c1OC	0.475	> 10	0.466	0.445
COc1cc(C2=NNC(c3ccc4cc[nH]c4c3)C2)cc(OC)c1OC (stereo not drawn)	> 10	> 10	> 10	> 10

SMILES	IC50 [1] [µM]	IC50 [2] [µM]	IC50 [3] [µM]	IC50 [4] [µM]
CCn1c2ccccc2c2cc(C3CC(c4cc(OC)c(OC)c(OC)c4)=NN3)ccc21 (stereo not drawn)	1.95	> 10	2.32	> 10
COc1cc(-c2cc(-c3cccc4ccccc34)on2)cc(OC)c1OC	0.919	> 10	> 10	> 10
COc1cc(C(/C=C/c2ccc3oc4ccccc4c3c2)=N/O)cc(OC)c1OC	9.31	> 10	> 10	> 10
COc1cc(C(/C=C/c2cc3ccccc3s2)=N/O)cc(OC)c1OC	0.284	> 10	0.493	> 10
COc1cc(C2=NNC(c3ccc4oc5ccccc5c4c3)C2)cc(OC)c1OC (stereo not drawn)	> 10	> 10	> 10	> 10
COc1cc(C(/C=C/c2cccc3ccccc23)=N/O)cc(OC)c1OC	10	> 10	0.601	> 10
COc1cc(C2=NNC(c3csc4ccccc34)C2)cc(OC)c1OC (stereo not drawn)	> 10	> 10	> 10	> 10
COc1cc(C2=NOC(c3cccc4c3OCO4)C2)cc(OC)c1OC (stereo not drawn)	> 10	> 10	> 10	> 10
CCn1c2ccccc2c2cc(/C=C/C(=N\O)c3cc(OC)c(OC)c(OC)c3)ccc21	5.21	> 10	0.692	1.96
COc1cc(C2=NNC(c3c[nH]c4cc(Br)ccc34)C2)cc(OC)c1OC (stereo not drawn)	1.24	> 10	4.56	3.41
COc1cc(C2=NNC(c3cc4ccccc4s3)C2)cc(OC)c1OC (stereo not drawn)	> 10	> 10	> 10	> 10
COc1cc(C2=NOC(c3ccc4[nH]ccc4c3)C2)cc(OC)c1OC (stereo not drawn)	5.51	> 10	> 10	> 10
COc1cc(C2=NOC(c3csc4ccccc34)C2)cc(OC)c1OC (stereo not drawn)	> 10	> 10	> 10	> 10
COc1cc(C2=NNC(c3ccc4ncccc4c3)C2)cc(OC)c1OC (stereo not drawn)	> 10	> 10	> 10	> 10
COc1cc(C2=NNC(c3ccc4[nH]ccc4c3)C2)cc(OC)c1OC (stereo not drawn)	0.953	> 10	3.42	2.79
COc1cc(C2=NNC(c3c[nH]c4ccccc34)C2)cc(OC)c1OC (stereo not drawn)	3.49	> 10	4.35	7.13
COc1cc(C2=NOC(c3cccc4ccccc34)C2)cc(OC)c1OC (stereo not drawn)	> 10	> 10	> 10	> 10
COc1cc(C2=NOC(c3ccc4c(c3)CCO4)C2)cc(OC)c1OC (stereo not drawn)	> 10	> 10	> 10	> 10
COc1cc(C2=NOC(c3ccc4sc5ccccc5c4c3)C2)cc(OC)c1OC (stereo not drawn)	0.233	> 10	1.68	> 10
COc1cc(C2=NOC(c3cc4ccccc4o3)C2)cc(OC)c1OC (stereo not drawn)	> 10	> 10	> 10	> 10
COc1cc(-c2cc(-c3ccc4ccccc4c3)on2)cc(OC)c1OC	> 10	> 10	> 10	> 10
COc1cc(C2=NOC(c3ccc4ncccc4c3)C2)cc(OC)c1OC (stereo not drawn)	> 10	> 10	> 10	> 10
COc1cc(C2=NNC(c3coc4ccccc34)C2)cc(OC)c1OC (stereo not drawn)	> 10	> 10	> 10	> 10
